melting point: 101 to 102 °C
Compound: Cc1cc([N+](=O)[O-])ccc1/N=C1/C2CC3CC(C2)CC(C3)N1CC(C)C [Example 54, N-(4-Isobutyl-4-azatricyclo[4.3.1.1^3,8]undec-5-ylidene)-2-methyl-4-nitroaniline]
